Test results: patent US8932597B2 (priority 2008, dated 2015)

Tests used:
HuM2e antibody 23K12 = type: binding, human
[1] = test system: anti-M2 human monoclonal antibody Z3G1; type: binding

Row | Substance | Signal (peptides that bind to 23K21 and 8I10) (HuM2e antibody 23K12) | Signal (peptides that show specific binding to Z3G1) [1] | Signal (peptides that bind to Z3G1) [1]
1 | 524 (SLLTEVETPIDNEWGCRCNDSSD; epitope peptide) [compound 524] | 1001 | 2337 | –
2 | 525 (SLLTEVGCSCLCEV; epitope peptide) [compound 525] | 996 | 1829 | –
3 | 527 (SLLTEVEQPIRNEWGCRCNDSSD; epitope peptide) [compound 527] | 986 | 2344 | –
4 | 528 (MSLLTCVGCSLLTEV; epitope peptide) [compound 528] | 978 | – | 2467
5 | 529 (SLLTEVETNIRNEWGCRCNDSSD; epitope peptide) [compound 529] | 978 | 2253 | –
6 | 532 (MSCLTEVGMSLLTEV; epitope peptide) [compound 532] | 968 | – | 2336
7 | 533 (CSLLTEVGSCLCEC; epitope peptide) [compound 533] | 963 | 2625 | –
8 | 534 (SLLTEVEKPIRNEWGCRCNDSSD; epitope peptide) [compound 534] | 963 | 2505 | –
9 | 535 (SLLTEVETPIRNEWGCRCNFSSD; epitope peptide) [compound 535] | 963 | – | 2509
10 | 536 (MCLCTCVGCSLLTEV; epitope peptide) [compound 536] | 954 | – | 2241
11 | 537 (SLLTEVEPPIRNEWGCRCNDSSD; epitope peptide) [compound 537] | 953 | 2522 | –
12 | 538 (LLLTEVETPIRNEWGCRCNDSSD; epitope peptide) [compound 538] | 950 | 1399 | –
13 | 542 (MSLCTEVGMSLLTCV; epitope peptide) [compound 542] | 927 | – | 2722
14 | 543 (MSLLTCVGMSLLTEV; epitope peptide) [compound 543] | 925 | – | 2627
15 | 544 (SLLTEVETPIRNEWGCRCRDSSD; epitope peptide) [compound 544] | 924 | – | 2447
16 | 545 (SLLTEVSTPIRNEWGCRCNDSSD; epitope peptide) [compound 545] | 923 | 2288 | –
17 | 546 (SLLTEVETPIRNRWGCRCNDSSD; epitope peptide) [compound 546] | 921 | 2257 | –
18 | 547 (SLLTETETPIRNEWGCRCNDSSD; epitope peptide) [compound 547] | 919 | 1594 | –
19 | 549 (SLLTEVETFIRNEWGCRCNDSSD; epitope peptide) [compound 549] | 916 | 2301 | –
20 | 551 (SLLTEVATPIRNEWGCRCNDSSD; epitope peptide) [compound 551] | 914 | 2093 | –
21 | 552 (SLLTEVETPIRNEWGCYCNDSSD; epitope peptide) [compound 552] | 913 | 2397 | –
22 | 553 (SLLTEVTTPIRNEWGCRCNDSSD; epitope peptide) [compound 553] | 909 | 2102 | –
23 | 555 (SLLTEVETPIRNEWGCRCWDSSD; epitope peptide) [compound 555] | 901 | – | 2462
24 | 556 (SLLTELETPIRNEWGCRCNDSSD; epitope peptide) [compound 556] | 900 | 1380 | –
25 | 557 (MSCLTEVGCSLLTEV; epitope peptide) [compound 557] | 899 | – | 2506

Row | Substance | Signal (peptides that bind to 23K21 and 8I10) (HuM2e antibody 23K12) | Signal (peptides that show specific binding to Z3G1) [1] | Signal (peptides that bind to Z3G1) [1]
26 | 559 (SLLTEVETAIRNEWGCRCNDSSD; epitope peptide) [compound 559] | 895 | 2415 | –
27 | 560 (SLLTEVETPIRNEWGCRCFDSSD; epitope peptide) [compound 560] | 894 | – | 2538
28 | 562 (SLLTEVETPIRWEWGCRCNDSSD; epitope peptide) [compound 562] | 890 | 2302 | –
29 | 563 (SLLTEVETPIRNEWGGRCNDSSD; epitope peptide) [compound 563] | 887 | 2270 | –
30 | 564 (SLLTEVELPIRNEWGCRCNDSSD; epitope peptide) [compound 564] | 886 | 2407 | –
31 | 565 (SLLTEVETPIRVEWGCRCNDSSD; epitope peptide) [compound 565] | 884 | 2300 | –
32 | 566 (SLLTEVCTPIRNEWGCRCNDSSD; epitope peptide) [compound 566] | 881 | 1210 | –
33 | 568 (SLLTEVETPIRNEWGCRCQDSSD; epitope peptide) [compound 568] | 877 | – | 2438
34 | 570 (MCLLTEVGCSLLTEV; epitope peptide) [compound 570] | 875 | – | 2717
35 | 571 (SLLTEVETPIRNLWGCRCNDSSD; epitope peptide) [compound 571] | 870 | 2415 | –
36 | 572 (SLLTEVETPIRNEKGCRCNDSSD; epitope peptide) [compound 572] | 868 | 2580 | –
37 | 573 (SLLTEVETPIRNEWGCRTNDSSD; epitope peptide) [compound 573] | 867 | 2374 | –
38 | 575 (SLLTEVRTPIRNEWGCRCNDSSD; epitope peptide) [compound 575] | 866 | 1024 | –
39 | 576 (SLLTEVETPIFNEWGCRCNDSSD; epitope peptide) [compound 576] | 862 | 2176 | –
40 | 577 (SLLTEVETPIRNIWGCRCNDSSD; epitope peptide) [compound 577] | 862 | 2490 | –
41 | 579 (SLLTEVETPIRNEWGCRWNDSSD; epitope peptide) [compound 579] | 859 | – | 2364
42 | 580 (SLCTEVGCSLLTEV; epitope peptide) [compound 580] | 858 | 2382 | –
43 | 581 (SLLTEVETYIRNEWGCRCNDSSD; epitope peptide) [compound 581] | 857 | 2290 | –
44 | 582 (SLLTEVETPIRAEWGCRCNDSSD; epitope peptide) [compound 582] | 856 | 2306 | –
45 | 583 (SLLTEVWTPIRNEWGCRCNDSSD; epitope peptide) [compound 583] | 855 | 1889 | –
46 | 584 (SLLTEVETPIRNEWGCRRNDSSD; epitope peptide) [compound 584] | 855 | 2383 | –
47 | 585 (SLLTEVETPIRLEWGCRCNDSSD; epitope peptide) [compound 585] | 853 | 2468 | –
48 | 586 (SLLTEVETPIRNEWGCRCNISSD; epitope peptide) [compound 586] | 851 | – | 2517
49 | 587 (SLLTEVETPIRCEWGCRCNDSSD; epitope peptide) [compound 587] | 850 | 1956 | –
